One may read the IC50 as the concentration that inhibits the measured activity by half. A low value points to greater potency in that assay.

SMILES strings stand for the structures.

The record followed here is patent US11530181B2, “IL-6 inhibitors and methods of treatment” (University of Florida Research Foundation, Incorporated, priority 2018, dated 2022).

One assay relates to PE/CA-PJ49 cell line. The assay is described as follows: Inhibitory activity in PTPRD mutant cell line PE/CA-PJ49. Type of assay: cell-based. The following applies: PE/CA-PJ49, 48 h. The protocol: (§1) Human breast cancer cell lines MCF7, MDA-MB-231 and SUM159 were maintained in Dulbecco's modified Eagle medium (DMEM). Human pancreatic cancer cell line BxPC-3 was maintained in RPMI 1640 medium. Human pancreatic cancer cell line Capan-1 was maintained in Iscove's Modified Dulbecco's Medium (IMEM). All media were supplemented with 10% FBS and 1% penicillin/streptomycin, and cells were incubated in a humidified 37° C. incubator with 5% CO2. PE/CA-PJ49 cell line was purchased from external sources and maintained according to manufacturer's protocol.
(§2) Cell viability was evaluated by using the MTT assay in triple replicates in one experiment and repeated for three times. Cancer cells were seeded in 96-well plates at a density of 3,000 cells per well. The cells were incubated at 37° C. for a period of 24 hours. Escalating concentrations of IL-6/gp130 inhibitors were added in triplicate to the plates in the presence of 10% FBS. After incubation for 48 or 72 hours, a stock solution of MTT (0.5 mg/ml) was then added to each well containing the treated cells, followed by incubation at 37° C. for 3 h. After removal of medium, the MTT dye was dissolved with spectrophotometric grade DMSO and the absorbance was read at 570 nm. The IC50 value is determined by interpolation based on the absorbance value halfway between positive and negative controls. In the experiment of LLM4 showing higher efficacy in cancer cells with higher levels of IL-6, instead of using medium with 10% FBS, DMEM with 0% FBS was used in order to eliminate the influence of trace amounts of growth factors and cytokines in FBS.
Protein tyrosine […] receptor type D (PTPRD) is reported to serve as a tumor suppressor in various human cancers [Peyser et. al, PLoS One (2015) 10(8)]. PTPRD mutation is also known to be associated with increased STAT3 expression [Peyser et. al, PLoS One (2015) 10(8)]. Table 8 captures the inhibitory activities of various compounds in the PTPRD mutant cell line, PE/CA-PJ49.

Assay [1] concerns IL-11 induced STAT3 phosphorylation. Description: Western blot, IL-11 induced STAT3 phosphorylation in MCF7. The format is cell-based, human. As to conditions: MCF7, 15 μM, 2, 3 and 4 hours. The protocol:
(§3) Cells were harvested and lysed in cold radioimmunoprecipitation assay (RIPA) lysis buffer containing proteasome inhibitor cocktail and phosphatase inhibitor cocktail. The protein concentrations were determined using the BCA Protein Assay kit. After adding the loading buffer and boiling at 95° C. for 10 minutes, equivalent amounts of proteins were loaded on and separated by SDS-PAGE, and then were transferred to PVDF membranes. Membranes were probed with primary antibodies (1:1000) against phospho-STAT3 (Tyr705), STAT3, phospho-STAT1 (Tyr701), STAT1, phospho-STAT6 (Tyr 641), STAT6, and GAPDH, respectively, and horseradish peroxidase (HRP)-conjugated secondary antibody (1:10000) (Cell Signaling Technology, Beverly, Mass.). Membranes were analyzed using Enhanced Chemiluminescence Plus reagents and either scanned with the Storm Scanner (Amersham Pharmacia Biotech, Inc., Piscataway, N.J.) or imaged with ChemiDoc MP imaging system (Bio-Rad, Hercules, Calif.). […] The cells were harvested after 30 minutes and analyzed by Western blot.
MCF7 breast cancer cells were seeded in 10 cm plates (1 million cells per plate) and allowed to adhere overnight. […] The cells were harvested after 30 minutes and analyzed by western blotting.
(In general: Immunoblotting shows a protein as a band on a membrane.)

The test system of assay [2] is STAT3 phosphorylation in BxPC-3 cells. Description: Western blot, STAT3 phosphorylation in BxPC-3 (IL-6 autocrine). The format is cell-based, human. The protocol: as §3, with “Calif.). For cytokine induction of STAT3 phosphorylation, MCF-7 breast cancer cells were seeded in 10 cm plates (1 million cells per plate) and allowed to adhere overnight followed by serum-starvation.” for “Calif.).”
BxPC-3 and SUM159 cells were seeded in 10 cm plates (1 million cells per plate) and allowed to adhere overnight. […] Then cells were harvested and analyzed by western blotting.

Assay [3] concerns Capan-1 pancreatic cancer cell line. The assay is described as follows: MTT cell viability assay, Capan-1. The following applies: Homo sapiens. Type of assay: cell-based. The protocol:
as §1
as §2, with “In the experiment of LLM4 showing higher efficacy in cancer cells with higher levels of IL-6, instead of using medium with 10% FBS, DMEM with 0% FBS was used in order to eliminate the influence of trace amounts of growth factors and cytokines in FBS.” left out
A general note: Formazan colour is commonly taken as a measure of viable cells.

Take `O=C(Nc1ccccc1-c1ccn[nH]1)c1ccc(OCCN2CCCCC2)cc1` [LLM418, N-(2-(1H-pyrazol-5-yl)phenyl)-4-(2-(piperidin-1-yl)ethoxy)benzamide]: in the assay on PE/CA-PJ49 cell line, the half-maximal inhibitory concentration (IC50) is 1.79 ± 0.48 µM.

As to `O=C(Nc1cc(F)ccc1-n1cccc1)c1ccc(OCCCN2CCCCC2)cc1` [LLM4, N-(5-fluoro-2-(1H-pyrrol-1-yl)phenyl)-4-(3-(piperidin-1-yl)propoxy)benzamide], in assay [1], the “inhibition of IL-11 induced STAT3 phosphorylation” value is “also inhibited IL-11 induced STAT3 phosphorylation”. For the same compound, the “inhibition of STAT3 phosphorylation” value in assay [2] (BxPC-3, 20 μM) was “almost complete inhibition”; in assay [2] (BxPC-3, 5-20 μM, 16 h), “inhibited STAT3 phosphorylation in BxPC-3 cells in a dose dependent manner”. This compound returned an IC50 in assay [3] of 35.1 µM.

On to `O=C(Nc1cccc(OCCN2CCCCC2)c1)Nc1cccc(-c2ccn[nH]2)c1` [LLM414, 1-(3-(1H-pyrazol-5-yl)phenyl)-3-(3-(2-(piperidin-1-yl)ethoxy)phenyl)urea], for which the IC50 with PE/CA-PJ49 cell line stood at 3.41 ± 0.99 µM.
